Results as given in the supplement of paper PMC11208160.

experiment: recombinant UMI read abundance after kanamycin selection (control-corrected) (log10(CPM+1)); higher = more efficient recombination; extreme values may be limits of the assay; sequences stand for … in AGTGCAGAGAAAATCGGCCAGTTTTCTCTGCCTGCAGTCCGCATGCCGTGGGACCCCTTGGGTTCTAACCTGTTGCCTAGATTTATGCAGCGGACTGCCTTTCTCCCAAAGTGATAAACCGG…AGGTTGGTTTCACT; site = the 11-nt donor
How it was run: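 In Escherichia coli, a pool of donor and donor-binding-loop pairs, each with a 12-nt UMI, was tested for the IS621 bridge recombinase. Plating was on IPTG (0.07 mM) plus kanamycin, or without selection, in two replicates. Recombinant UMIs were amplified by PCR across the donor–target junction and sequenced, and counts were reported as log10(CPM+1) after averaging and control-derived scaling.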
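Further: IS621 bridge recombinase in Escherichia coli cells against a fixed T5 target plasmid.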

Going from “TTTGCGGCATGGACCGGTTTTCCCGGTAATCCGTATTTGAT (site TTTGCGGCTAA)” to “TTGGAATCATGGACCGGTTTTCCCGGTAATCCGTATTTGCA (site TTGGAATCTTG)”, the “recombinant UMI read abundance (log10)” value rises from 0.015 to 2.76.

“CTCAAGACATGGACCGGTTTTCCCGGTAATCCGTATTTGGG (site CTCAAGACTCC)” and “GCGAAGCCATGGACCGGTTTTCCCGGTAATCCGTATTTGGG (site GCGAAGCCTCC)” are within 0.2 log units of each other in “recombinant UMI read abundance (log10)” value: 0 for the first, 0.00509 for the second.

“TGATCGACATGGACCGGTTTTCCCGGTAATCCGTATTTGTT (site GGATCGACTAA)” and “CCTAAAGCATGGACCGGTTTTCCCGGTAATCCGTATTTGAT (site CCTAACGCTAT)” are within 0.2 log units of each other in “recombinant UMI read abundance (log10)” value: 0.0286 for the first, 0.035 for the second.

Going from “ATAGTATCATGGACCGGTTTTCCCGGTAATCCGTATTTGCG (site ATAGTATCTCG)” to “CAAGCAGCATGGACCGGTTTTCCCGGTAATCCGTATTTGCT (site CAAGCTGCTAG)”, the “recombinant UMI read abundance (log10)” value falls from 3.07 to 0.0658.

Going from “ATCTATACATGGACCGGTTTTCCCGGTAATCCGTATTTGAC (site ATCTAAACTGT)” to “GGGACCTCATGGACCGGTTTTCCCGGTAATCCGTATTTGGT (site GGGACCTCTAC)”, the “recombinant UMI read abundance (log10)” value rises from 0 to 2.

“CTGTAGGCATGGACCGGTTTTCCCGGTAATCCGTATTTGGG (site CTGTAGGCTCC)” and “GCAGTGGCATGGACCGGTTTTCCCGGTAATCCGTATTTGGT (site GAAGTGGCTAC)” are within 0.2 log units of each other in “recombinant UMI read abundance (log10)” value: 0.27 for the first, 0.0767 for the second.

“CCCTTCCCATGGACCGGTTTTCCCGGTAATCCGTATTTGGG (site CCCTTCACTCC)” and “CTTCTCGCATGGACCGGTTTTCCCGGTAATCCGTATTTGTA (site CTTCTCTCTTA)” are within 0.2 log units of each other in “recombinant UMI read abundance (log10)” value: 0.0226 for the first, 0.0056 for the second.

Compared with “CCTAATACATGGACCGGTTTTCCCGGTAATCCGTATTTGGC (site CCTAATACTTC)”, “CCTCACTCATGGACCGGTTTTCCCGGTAATCCGTATTTGCA (site CCTCACTCTTG)” is higher in “recombinant UMI read abundance (log10)” value: 0.00574 for the first, 0.399 for the second.

Compared with “GGTGCCCCATGGACCGGTTTTCCCGGTAATCCGTATTTGAC (site GGTGCCCCTGT)”, “GACCCTACATGGACCGGTTTTCCCGGTAATCCGTATTTGAA (site GACCCTACTTT)” is higher in “recombinant UMI read abundance (log10)” value: 0 for the first, 0.324 for the second.

First: ACCTGCCCATGGACCGGTTTTCCCGGTAATCCGTATTTGTT (site ACCTGCCCTAA)
Second: AATGTGTCATGGACCGGTTTTCCCGGTAATCCGTATTTGCC (site AATGTGTCTGT)
The “recombinant UMI read abundance (log10)” value of the first is lower: 0.188 for the first, 2.16 for the second.

Going from “TAATAGACATGGACCGGTTTTCCCGGTAATCCGTATTTGGC (site TAATAGACTGC)” to “TAGTATACATGGACCGGTTTTCCCGGTAATCCGTATTTGTG (site TAGTATACTCA)”, the “recombinant UMI read abundance (log10)” value falls from 2.02 to 0.807.

Going from “CTAGCATCATGGACCGGTTTTCCCGGTAATCCGTATTTGAC (site CTAGGATCTGT)” to “GACCCGACATGGACCGGTTTTCCCGGTAATCCGTATTTGGT (site GACCCGACTAC)”, the “recombinant UMI read abundance (log10)” value falls from 0.773 to 0.319.

Going from “ATGAACACATGGACCGGTTTTCCCGGTAATCCGTATTTGTG (site ATGAACACTCA)” to “CGGTCGTCATGGACCGGTTTTCCCGGTAATCCGTATTTGCA (site CGGTCGTCTTG)”, the “recombinant UMI read abundance (log10)” value falls from 1.96 to 1.71.

First: CGGGCGTCATGGACCGGTTTTCCCGGTAATCCGTATTTGCC (site CGGGCGTCTGG)
Second: TACAGTCCATGGACCGGTTTTCCCGGTAATCCGTATTTGTA (site TACAGTCCTTA)
The “recombinant UMI read abundance (log10)” value of the first is higher: 2.89 for the first, 0.128 for the second.

“CTAGTATCATGGACCGGTTTTCCCGGTAATCCGTATTTGAC (site CTGGTATCTGG)” and “GGCAATCCATGGACCGGTTTTCCCGGTAATCCGTATTTGAC (site GGCAATCCTAT)” are within 0.2 log units of each other in “recombinant UMI read abundance (log10)” value: 0 for the first, 0.00921 for the second.

Going from “AGCTCAGCATGGACCGGTTTTCCCGGTAATCCGTATTTGGG (site AGCTCAGCTAC)” to “CCCCACACATGGACCGGTTTTCCCGGTAATCCGTATTTGTC (site CCCCACACTTA)”, the “recombinant UMI read abundance (log10)” value rises from 0.00707 to 0.335.

First: GTTCATGCATGGACCGGTTTTCCCGGTAATCCGTATTTGGT (site GTACATGCTAC)
Second: CCGTTATCATGGACCGGTTTTCCCGGTAATCCGTATTTGTG (site CCGTTAGCTCA)
The “recombinant UMI read abundance (log10)” value of the first is higher: 0.216 for the first, 0.0138 for the second.

“CCTAAAGCATGGACCGGTTTTCCCGGTAATCCGTATTTGAT (site GCTAAAGCTAT)” and “AGCTCAGCATGGACCGGTTTTCCCGGTAATCCGTATTTGGG (site AGCTCAGCTCA)” are within 0.2 log units of each other in “recombinant UMI read abundance (log10)” value: 0 for the first, 0.0167 for the second.

“GCTCCAACATGGACCGGTTTTCCCGGTAATCCGTATTTGTA (site GATCCAACTTA)” and “CGTTAGCCATGGACCGGTTTTCCCGGTAATCCGTATTTGAG (site CGTTAGACTCT)” are within 0.2 log units of each other in “recombinant UMI read abundance (log10)” value: 0.0429 for the first, 0.00766 for the second.

Compared with “TCCTTCGCATGGACCGGTTTTCCCGGTAATCCGTATTTGCT (site GATCCACCTTC)”, “CGGTAGCCATGGACCGGTTTTCCCGGTAATCCGTATTTGCT (site CGGTAGCCTAG)” is higher in “recombinant UMI read abundance (log10)” value: 0.0105 for the first, 0.793 for the second.

First: ATCCAAGCATGGACCGGTTTTCCCGGTAATCCGTATTTGCG (site ATCCAAGCTCC)
Second: CTAGTATCATGGACCGGTTTTCCCGGTAATCCGTATTTGAT (site CTAGTATCTTT)
The “recombinant UMI read abundance (log10)” value of the first is lower: 0.00949 for the first, 1.07 for the second.

First: CGATGGACATGGACCGGTTTTCCCGGTAATCCGTATTTGTT (site CGATTGACTAA)
Second: TAGACTACATGGACCGGTTTTCCCGGTAATCCGTATTTGCA (site TAGAATACTTG)
The “recombinant UMI read abundance (log10)” value of the first is lower: 0.00606 for the first, 0.379 for the second.

“CGTTAGACATGGACCGGTTTTCCCGGTAATCCGTATTTGCG (site CGTTAGACTCA)” and “CCATTATCATGGACCGGTTTTCCCGGTAATCCGTATTTGCA (site ACAGTATCTTG)” are within 0.2 log units of each other in “recombinant UMI read abundance (log10)” value: 0.0494 for the first, 0 for the second.

First: TAACGAGCATGGACCGGTTTTCCCGGTAATCCGTATTTGGG (site TAAGGAGCTCC)
Second: GATTGCGCATGGACCGGTTTTCCCGGTAATCCGTATTTGCG (site GATTGCGCTCG)
The “recombinant UMI read abundance (log10)” value of the first is lower: 0.143 for the first, 0.805 for the second.

Going from “AAGGTTGCATGGACCGGTTTTCCCGGTAATCCGTATTTGCA (site AAGGTTGCTTG)” to “ACACCTGCATGGACCGGTTTTCCCGGTAATCCGTATTTGGG (site ACACCTGCTCC)”, the “recombinant UMI read abundance (log10)” value falls from 2.22 to 0.734.

Compared with “TATTTAGCATGGACCGGTTTTCCCGGTAATCCGTATTTGTG (site TATTTAGCTCA)”, “TCGTTCCCATGGACCGGTTTTCCCGGTAATCCGTATTTGAC (site TCGTTCCCTGT)” is lower in “recombinant UMI read abundance (log10)” value: 0.31 for the first, 0 for the second.

Going from “TAGGACTCATGGACCGGTTTTCCCGGTAATCCGTATTTGCG (site TAGGACTCTCG)” to “TCGCTGTCATGGACCGGTTTTCCCGGTAATCCGTATTTGGA (site TCGCTGTCTTC)”, the “recombinant UMI read abundance (log10)” value falls from 2.75 to 1.34.

Compared with “TAGCTAGCATGGACCGGTTTTCCCGGTAATCCGTATTTGAC (site TAGCTAGCTAT)”, “TACTTGACATGGACCGGTTTTCCCGGTAATCCGTATTTGCA (site TACTTGACTCG)” is lower in “recombinant UMI read abundance (log10)” value: 0.556 for the first, 0.0381 for the second.

Going from “GTGGAGGCATGGACCGGTTTTCCCGGTAATCCGTATTTGTG (site GTGGAGGCTCC)” to “TAATTCCCATGGACCGGTTTTCCCGGTAATCCGTATTTGCT (site GAATTCCCTAG)”, the “recombinant UMI read abundance (log10)” value rises from 0.284 to 1.7.

Going from “AGCTCAGCATGGACCGGTTTTCCCGGTAATCCGTATTTGGG (site AGCTCAACTCC)” to “TAGAAGACATGGACCGGTTTTCCCGGTAATCCGTATTTGCA (site TAGAAGACTTG)”, the “recombinant UMI read abundance (log10)” value rises from 0 to 2.51.

“AGCCTTGCATGGACCGGTTTTCCCGGTAATCCGTATTTGTT (site AGCCTTGCTAA)” and “TCTAAAGCATGGACCGGTTTTCCCGGTAATCCGTATTTGAT (site CCTAAAGCTAT)” are the same in “recombinant UMI read abundance (log10)” value: 0 for the first, 0 for the second.

Compared with “CGATTGGCATGGACCGGTTTTCCCGGTAATCCGTATTTGCA (site CGATTGGCTTG)”, “TCCATCGCATGGACCGGTTTTCCCGGTAATCCGTATTTGCG (site TCCATCGCTCG)” is lower in “recombinant UMI read abundance (log10)” value: 2.02 for the first, 0.00801 for the second.

Compared with “AATGTAACATGGACCGGTTTTCCCGGTAATCCGTATTTGAT (site AATGTAACTAT)”, “CTGGGAACATGGACCGGTTTTCCCGGTAATCCGTATTTGCA (site CTGGCAACTTG)” is lower in “recombinant UMI read abundance (log10)” value: 2.15 for the first, 0.789 for the second.

Compared with “CTAGTATCATGGACCGGTTTTCCCGGTAATCCGTATTTGAC (site ATAGCATCTGT)”, “CCTCTCTCATGGACCGGTTTTCCCGGTAATCCGTATTTGTA (site CCTCTCTCTTA)” is higher in “recombinant UMI read abundance (log10)” value: 0 for the first, 0.53 for the second.

Going from “ATCTATACATGGACCGGTTTTCCCGGTAATCCGTATTTGAC (site ATCCATACTGT)” to “CAATTCTCATGGACCGGTTTTCCCGGTAATCCGTATTTGAA (site CAATGCTCTTT)”, the “recombinant UMI read abundance (log10)” value falls from 1.7 to 0.0109.

“GTCGGGACATGGACCGGTTTTCCCGGTAATCCGTATTTGGG (site GTCGGGACTCC)” and “CGTTTGGCATGGACCGGTTTTCCCGGTAATCCGTATTTGCC (site CGTTTGGCTTG)” are within 0.2 log units of each other in “recombinant UMI read abundance (log10)” value: 0.0114 for the first, 0 for the second.

“CGGGAACCATGGACCGGTTTTCCCGGTAATCCGTATTTGAT (site CGGGAACCTAA)” and “CGATCAGCATGGACCGGTTTTCCCGGTAATCCGTATTTGCT (site CGATCAACTAG)” are within 0.2 log units of each other in “recombinant UMI read abundance (log10)” value: 0.00496 for the first, 0 for the second.

For “ATTGAGACATGGACCGGTTTTCCCGGTAATCCGTATTTGGA (site ATTGAGACTAC)”, the “recombinant UMI read abundance (log10)” value was 0.0442.
